Experiments:
Mus musculus [1] = experiment: Biodistribution in abdominal region of NMRI nude mouse xenografted with human PC3 cells at 3.6 to 5.1 MBq after 62 to 170 mins by PET imaging analysis; assay type: ADME, organism-based, Abdomen, PC-3; details: in vivo
[2] = Ratio of biodistribution in tumor to muscle of NMRI nude mouse xenografted with human PC3 cells after 182 mins by gamma-counting analysis; assay type: ADME, organism-based, PC-3; details: in vivo
[3] = Ratio of biodistribution in tumor to blood of NMRI nude mouse xenografted with human PC3 cells after 182 mins by gamma-counting analysis; assay type: ADME, organism-based, PC-3; details: tumour
Stomach [4] = experiment: Biodistribution in stomach of NMRI nude mouse xenografted with human PC3 cells after 182 mins by gamma-counting analysis; assay type: ADME, organism-based, PC-3; details: in vivo
Bone [5] = experiment: Biodistribution in bone of NMRI nude mouse xenografted with human PC3 cells after 182 mins by gamma-counting analysis; assay type: ADME, organism-based, Bone element, PC-3; details: in vivo
Mus musculus [6] = experiment: Biodistribution in adrenal gland of NMRI nude mouse xenografted with human PC3 cells after 182 mins by gamma-counting analysis; assay type: ADME, organism-based, PC-3; details: in vivo
[7] = Biodistribution in fat of NMRI nude mouse xenografted with human PC3 cells after 182 mins by gamma-counting analysis; assay type: ADME, organism-based, Adipose tissue, PC-3; details: in vivo
Muscle tissue [8] = experiment: Biodistribution in muscle of NMRI nude mouse xenografted with human PC3 cells after 182 mins by gamma-counting analysis; assay type: ADME, organism-based, PC-3; details: in vivo
Heart [9] = experiment: Biodistribution in heart of NMRI nude mouse xenografted with human PC3 cells after 182 mins by gamma-counting analysis; assay type: ADME, organism-based, PC-3; details: in vivo
Spleen [10] = experiment: Biodistribution in spleen of NMRI nude mouse xenografted with human PC3 cells after 182 mins by gamma-counting analysis; assay type: ADME, organism-based, PC-3; details: in vivo
[11] = Biodistribution in urine of NMRI nude mouse xenografted with human PC3 cells after 182 mins by gamma-counting analysis; assay type: ADME, organism-based, PC-3; details: in vivo
Mus musculus [12] = experiment: Biodistribution in gallbladder of NMRI nude mouse xenografted with human PC3 cells after 182 mins by gamma-counting analysis; assay type: ADME, organism-based, Gall bladder, PC-3; details: in vivo
Lung [13] = experiment: Biodistribution in lung of NMRI nude mouse xenografted with human PC3 cells after 182 mins by gamma-counting analysis; assay type: ADME, organism-based, PC-3; details: in vivo
Intestine [14] = experiment: Biodistribution in intestine of NMRI nude mouse xenografted with human PC3 cells after 182 mins by gamma-counting analysis; assay type: ADME, organism-based, PC-3; details: in vivo
Kidney [15] = experiment: Biodistribution in kidney of NMRI nude mouse xenografted with human PC3 cells after 182 mins by gamma-counting analysis; assay type: ADME, organism-based, PC-3; details: in vivo
Liver [16] = experiment: Biodistribution in liver of NMRI nude mouse xenografted with human PC3 cells after 182 mins by gamma-counting analysis; assay type: ADME, organism-based, PC-3; details: in vivo
Mus musculus [17] = experiment: Biodistribution in prostate of NMRI nude mouse xenografted with human PC3 cells after 182 mins by gamma-counting analysis; assay type: ADME, organism-based, Prostate gland, PC-3; details: in vivo
Pancreas [18] = experiment: Biodistribution in pancreas of NMRI nude mouse xenografted with human PC3 cells after 182 mins by gamma-counting analysis; assay type: ADME, organism-based, PC-3; details: in vivo
Blood [19] = experiment: Biodistribution in blood of NMRI nude mouse xenografted with human PC3 cells after 182 mins by gamma-counting analysis; assay type: ADME, organism-based, PC-3; details: in vivo
Mus musculus [20] = experiment: Biodistribution in tumor of NMRI nude mouse xenografted with human PC3 cells after 182 mins by gamma-counting analysis; assay type: ADME, organism-based, Neoplasm, PC-3; details: in vivo
[21] = Ratio of biodistribution in tumor to muscle of NMRI nude mouse xenografted with human PC3 cells after 104 mins by gamma-counting analysis; assay type: ADME, organism-based, PC-3; details: in vivo
[22] = Ratio of biodistribution in tumor to blood of NMRI nude mouse xenografted with human PC3 cells after 104 mins by gamma-counting analysis; assay type: ADME, organism-based, PC-3; details: tumour
Stomach [23] = experiment: Biodistribution in stomach of NMRI nude mouse xenografted with human PC3 cells after 104 mins by gamma-counting analysis; assay type: ADME, organism-based, PC-3; details: in vivo
Bone [24] = experiment: Biodistribution in bone of NMRI nude mouse xenografted with human PC3 cells after 104 mins by gamma-counting analysis; assay type: ADME, organism-based, Bone element, PC-3; details: in vivo
Mus musculus [25] = experiment: Biodistribution in adrenal gland of NMRI nude mouse xenografted with human PC3 cells after 104 mins by gamma-counting analysis; assay type: ADME, organism-based, PC-3; details: in vivo
Muscle tissue [26] = experiment: Biodistribution in muscle of NMRI nude mouse xenografted with human PC3 cells after 104 mins by gamma-counting analysis; assay type: ADME, organism-based, PC-3; details: in vivo
[27] = Biodistribution in fat of NMRI nude mouse xenografted with human PC3 cells after 104 mins by gamma-counting analysis; assay type: ADME, organism-based, Adipose tissue, PC-3; details: in vivo
Heart [28] = experiment: Biodistribution in heart of NMRI nude mouse xenografted with human PC3 cells after 104 mins by gamma-counting analysis; assay type: ADME, organism-based, PC-3; details: in vivo
Spleen [29] = experiment: Biodistribution in spleen of NMRI nude mouse xenografted with human PC3 cells after 104 mins by gamma-counting analysis; assay type: ADME, organism-based, PC-3; details: in vivo
[30] = Biodistribution in urine of NMRI nude mouse xenografted with human PC3 cells after 104 mins by gamma-counting analysis; assay type: ADME, organism-based, PC-3; details: in vivo
Mus musculus [31] = experiment: Biodistribution in gallbladder of NMRI nude mouse xenografted with human PC3 cells after 104 mins by gamma-counting analysis; assay type: ADME, organism-based, Gall bladder, PC-3; details: in vivo
Lung [32] = experiment: Biodistribution in lung of NMRI nude mouse xenografted with human PC3 cells after 104 mins by gamma-counting analysis; assay type: ADME, organism-based, PC-3; details: in vivo
Intestine [33] = experiment: Biodistribution in intestine of NMRI nude mouse xenografted with human PC3 cells after 104 mins by gamma-counting analysis; assay type: ADME, organism-based, PC-3; details: in vivo
Kidney [34] = experiment: Biodistribution in kidney of NMRI nude mouse xenografted with human PC3 cells after 104 mins by gamma-counting analysis; assay type: ADME, organism-based, PC-3; details: in vivo
Liver [35] = experiment: Biodistribution in liver of NMRI nude mouse xenografted with human PC3 cells after 104 mins by gamma-counting analysis; assay type: ADME, organism-based, PC-3; details: in vivo
Mus musculus [36] = experiment: Biodistribution in prostate of NMRI nude mouse xenografted with human PC3 cells after 104 mins by gamma-counting analysis; assay type: ADME, organism-based, Prostate gland, PC-3; details: in vivo
Pancreas [37] = experiment: Biodistribution in pancreas of NMRI nude mouse xenografted with human PC3 cells after 104 mins by gamma-counting analysis; assay type: ADME, organism-based, PC-3; details: in vivo
Blood [38] = experiment: Biodistribution in blood of NMRI nude mouse xenografted with human PC3 cells after 104 mins by gamma-counting analysis; assay type: ADME, organism-based, PC-3; details: in vivo
Mus musculus [39] = experiment: Biodistribution in tumor of NMRI nude mouse xenografted with human PC3 cells after 104 mins by gamma-counting analysis; assay type: ADME, organism-based, Neoplasm, PC-3; details: in vivo
Mus musculus [40] = experiment: Biodistribution in tumor of NMRI nude mouse xenografted with human PC3 cells at 3.6 to 5.1 MBq after 62 to 170 mins by PET imaging analysis; assay type: ADME, organism-based, Neoplasm, PC-3; details: in vivo
[41] = Stability of the compound in PBS buffer up to 2 hrs; assay type: physicochemical

Structure (SMILES): CC(C)C[C@H](NC(=O)C[C@H](O)[C@H](CC(C)C)NC(=O)[C@H](Cc1cnc[nH]1)NC(=O)CN(C)C(=O)[C@@H](NC(=O)[C@H](C)NC(=O)[C@H](Cc1c[nH]c2ccccc12)NC(=O)[C@H](CCC(N)=O)NC(=O)CCCCNC(=O)[C@H](CS(=O)(=O)O)NC(=O)[C@H](CS(=O)(=O)O)NC(=O)C(O)C(O)C(=O)NCCc1ccc([Si]([18F])(C(C)(C)C)C(C)(C)C)cc1)C(C)C)C(N)=O (stereo partly specified)
- Drug uptake (Mus musculus [1]): Not Active
- Ratio [2]: 8.41
- Ratio [3]: 0.95
- Drug uptake (Stomach [4]): 0.8 % ID/g
- Drug uptake (Bone [5]): 0.92 % ID/g
- Drug uptake (Mus musculus [6]): 2.07 % ID/g
- Drug uptake [7]: 0.51 % ID/g
- Drug uptake (Muscle tissue [8]): 0.29 % ID/g
- Drug uptake (Heart [9]): 0.85 % ID/g
- Drug uptake (Spleen [10]): 1.32 % ID/g
- Drug uptake [11]: 20 % ID/g
- Drug uptake (Mus musculus [12]): 128 % ID/g
- Drug uptake (Lung [13]): 1.94 % ID/g
- Drug uptake (Intestine [14]): 9.5 % ID/g
- Drug uptake (Kidney [15]): 4.1 % ID/g
- Drug uptake (Liver [16]): 13 % ID/g
- Drug uptake (Mus musculus [17]): 0.29 % ID/g
- Drug uptake (Pancreas [18]): 21 % ID/g
- Drug uptake (Blood [19]): 2.58 % ID/g
- Drug uptake (Mus musculus [20]): 2.44 % ID/g
- Ratio [21]: 5.03
- Ratio [22]: 0.65
- Drug uptake (Stomach [23]): 0.42 % ID/g
- Drug uptake (Bone [24]): 1.09 % ID/g
- Drug uptake (Mus musculus [25]): 5.01 % ID/g
- Drug uptake (Muscle tissue [26]): 0.69 % ID/g
- Drug uptake [27]: 1.24 % ID/g
- Drug uptake (Heart [28]): 1.37 % ID/g
- Drug uptake (Spleen [29]): 2.15 % ID/g
- Drug uptake [30]: 25 % ID/g
- Drug uptake (Mus musculus [31]): 36 % ID/g
- Drug uptake (Lung [32]): 4.2 % ID/g
- Drug uptake (Intestine [33]): 12.6 % ID/g
- Drug uptake (Kidney [34]): 6 % ID/g
- Drug uptake (Liver [35]): 25 % ID/g
- Drug uptake (Mus musculus [36]): 0.44 % ID/g
- Drug uptake (Pancreas [37]): 46 % ID/g
- Drug uptake (Blood [38]): 5.37 % ID/g
- Drug uptake (Mus musculus [39]): 3.47 % ID/g
- Drug uptake (Mus musculus [40]): Active
- Stability [41]: Stable

From ChEMBL document CHEMBL2429805, “Studies toward the development of new silicon-containing building blocks for the direct (18)F-labeling of peptides” (J Med Chem, 2013)
